According to PMC9481151, “Discovery of new symmetrical and asymmetrical nitrile-containing 1,4-dihydropyridine derivatives as dual kinases and P-glycoprotein inhibitors: synthesis, in vitro assays, and in silico studies” (Journal of Enzyme Inhibition and Medicinal Chemistry, 2022):
≈ marks a conversion by molar mass, not a printed value. Read-outs that look alike come from different tables or passages of the source.

Key:
A498 = assay: NCI single dose (10 µM) SRB screen; assay type: cell-based, human; details: renal cancer, 48 h
A. flavus = assay: MIC, two-fold microbroth dilution method; details: Aspergillus flavus, read-out: MIC (µg/mL) A. flavus
OVCAR-8 = assay: NCI single dose (10 µM) SRB screen; assay type: cell-based, human; details: ovarian cancer, 48 h
B. subtilis = assay: MIC, two-fold microbroth dilution method; details: Bacillus subtilis
A549/ATCC = assay: NCI single dose (10 µM) SRB screen; assay type: cell-based, human; details: non-small cell lung cancer, 48 h
DU-145 = assay: NCI single dose (10 µM) SRB screen; assay type: cell-based, human; details: prostate cancer, 48 h
SW-620 = assay: NCI single dose (10 µM) SRB screen; assay type: cell-based, human; details: colon cancer, 48 h
S. aureus = assay: MIC, two-fold microbroth dilution method; details: Staphylococcus aureus
SF-268 = assay: NCI single dose (10 µM) SRB screen; assay type: cell-based, human; details: CNS cancer, 48 h
E. coli = assay: MIC, two-fold microbroth dilution method; details: Escherichia coli, read-out: MIC (µg/mL) E. coli
EKVX = assay: NCI single dose (10 µM) SRB screen; assay type: cell-based, human; details: non-small cell lung cancer, 48 h
MDA-MB-435 = assay: NCI single dose (10 µM) SRB screen; assay type: cell-based, human; details: melanoma, 48 h
SK-MEL-5 = assay: NCI single dose (10 µM) SRB screen; assay type: cell-based, human; details: melanoma, 48 h
MDA-MB-231 = assay: NCI single dose (10 µM) SRB screen; assay type: cell-based, human; details: breast cancer, 48 h
LOX IMVI = assay: NCI single dose (10 µM) SRB screen; assay type: cell-based, human; details: melanoma, 48 h
NCI/ADR-RES = assay: NCI single dose (10 µM) SRB screen; assay type: cell-based, human; details: ovarian cancer, 48 h
MOLT-4 = assay: NCI single dose (10 µM) SRB screen; assay type: cell-based, human; details: leukaemia, 48 h
P. aeruginosa = assay: MIC, two-fold microbroth dilution method; details: Pseudomonas aeruginosa, read-out: MIC (µg/mL) P. aeruginosa
HOP-62 = assay: NCI single dose (10 µM) SRB screen; assay type: cell-based, human; details: non-small cell lung cancer, 48 h
SF-539 = assay: NCI single dose (10 µM) SRB screen; assay type: cell-based, human; details: CNS cancer, 48 h
HT29 = assay: NCI single dose (10 µM) SRB screen; assay type: cell-based, human; details: colon cancer, 48 h
C. albicans = assay: MIC, two-fold microbroth dilution method; details: Candida albicans
[1] = read-out: MIC (µg/mL) B. subtilis
[2] = read-out: MIC (µg/mL) S. aureus
[3] = read-out: MIC (µg/mL) C. albicans

MIC (A. flavus) [µg/mL] | MIC (B. subtilis; [1]) [µg/mL] | melting point [°C] | MIC (S. aureus; [2]) [µg/mL] | MIC (E. coli) [µg/mL] | MIC (P. aeruginosa) [µg/mL] | Compound | GI% A498 (A498) | GI% OVCAR-8 (OVCAR-8) | GI% A549/ATCC (A549/ATCC) | GI% DU-145 (DU-145) | GI% SW-620 (SW-620) | GI% SF-268 (SF-268) | GI% EKVX (EKVX) | GI% MDA-MB-435 (MDA-MB-435) | GI% SK-MEL-5 (SK-MEL-5) | GI% MDA-MB-231 (MDA-MB-231) | GI% LOX IMVI (LOX IMVI) | GI% NCI/ADR-RES (NCI/ADR-RES) | GI% MOLT-4 (MOLT-4) | GI% HOP-62 (HOP-62) | further results
2 (≈ 5.88 µM) | 1 (≈ 2.94 µM) | 151 to 153 | 0.5 (≈ 1.47 µM) | 1 (≈ 2.94 µM) | 2 (≈ 5.88 µM) | CCOC(=O)C1=C(C)NC(C)=C(C(=O)OC)C1c1cccc(C#N)c1 (racemic) [Compound 2g, (±)-3-Ethyl 5-methyl 4-(3-cyanophenyl)-2,6-dimethyl-1,4-dihydropyridine-3,5-dicarboxylate] | – (Only GI% ≥ 10 are shown) | – (Only GI% ≥ 10 are shown) | – (Only GI% ≥ 10 are shown) | – (Only GI% ≥ 10 are shown) | – (Only GI% ≥ 10 are shown) | – (Only GI% ≥ 10 are shown) | – (Only GI% ≥ 10 are shown) | – (Only GI% ≥ 10 are shown) | – (Only GI% ≥ 10 are shown) | – (Only GI% ≥ 10 are shown) | – (Only GI% ≥ 10 are shown) | – (Only GI% ≥ 10 are shown) | – (Only GI% ≥ 10 are shown) | – (Only GI% ≥ 10 are shown) | MIC (B. subtilis; 24 h, read-out: MIC, B. subtilis): 1 µg/mL (≈ 2.94 µM); MIC (S. aureus; 24 h, read-out: MIC, S. aureus): 0.5 µg/mL (≈ 1.47 µM); GI% SF-539 (SF-539): – (Only GI% ≥ 10 are shown); GI% HT29 (HT29): – (Only GI% ≥ 10 are shown); MIC (C. albicans; 24 h, read-out: MIC, C. albicans): 1 µg/mL (≈ 2.94 µM); MIC (C. albicans; [3]): 1 µg/mL (≈ 2.94 µM)
16 (≈ 38.6 µM) | 2 (≈ 4.83 µM) | 125 to 126 | 4 (≈ 9.65 µM) | 8 (≈ 19.3 µM) | 16 (≈ 38.6 µM) | COCCOC(=O)C1=C(C)NC(C)=C(C(=O)OCCOC)C1c1cccc(C#N)c1 [Compound 1f, Di(2-methoxyethyl) 4-(3-cyanophenyl)-2,6-dimethyl-1,4-dihydropyridine-3,5-dicarboxylate] | – (Only GI% ≥ 10 are shown) | – (Only GI% ≥ 10 are shown) | – (Only GI% ≥ 10 are shown) | – (Only GI% ≥ 10 are shown) | – (Only GI% ≥ 10 are shown) | – (Only GI% ≥ 10 are shown) | – (Only GI% ≥ 10 are shown) | – (Only GI% ≥ 10 are shown) | – (Only GI% ≥ 10 are shown) | – (Only GI% ≥ 10 are shown) | – (Only GI% ≥ 10 are shown) | – (Only GI% ≥ 10 are shown) | – (Only GI% ≥ 10 are shown) | – (Only GI% ≥ 10 are shown) | GI% SF-539 (SF-539): – (Only GI% ≥ 10 are shown); GI% HT29 (HT29): – (Only GI% ≥ 10 are shown); MIC (C. albicans; [3]): 16 µg/mL (≈ 38.6 µM)
8 (≈ 20.9 µM) | 4 (≈ 10.5 µM) | 152 to 153 | 8 (≈ 20.9 µM) | 1 (≈ 2.61 µM) | 4 (≈ 10.5 µM) | CCOC(=O)C1=C(C)NC(C)=C(C(=O)OC(C)(C)C)C1c1cccc(C#N)c1 (racemic) [Compound 2j, (±)-3-Tert-butyl 5-ethyl 4-(3-cyanophenyl)-2,6-dimethyl-1,4-dihydropyridine-3,5-dicarboxylate] | – (Only GI% ≥ 10 are shown) | – (Only GI% ≥ 10 are shown) | 11% | – (Only GI% ≥ 10 are shown) | – (Only GI% ≥ 10 are shown) | – (Only GI% ≥ 10 are shown) | 10% | – (Only GI% ≥ 10 are shown) | – (Only GI% ≥ 10 are shown) | – (Only GI% ≥ 10 are shown) | – (Only GI% ≥ 10 are shown) | 10% | 17% | – (Only GI% ≥ 10 are shown) | GI% SF-539 (SF-539): – (Only GI% ≥ 10 are shown); GI% HT29 (HT29): – (Only GI% ≥ 10 are shown); MIC (C. albicans; [3]): 16 µg/mL (≈ 41.8 µM)
